Entries after “also recorded” stand apart in the source; their conditions may differ. Where no end group is shown, it is not given here.
Tests used:
[1] = biological target: T1, pepsin (Sus scrofa, UniProt P00791); test: Digestive enzyme sensitivity (inhibition zone assay); type: in vitro ADME; settings: 100 μg/ml pepsin in pH 2 sterile water, 37°C, 3 h; 50 μg/ml peptide; inhibition zone assay against E. coli ATCC 25922; repeated three times
T1 construct: purchased sigma, USA
From the text: (§1) All experiments were repeated three times.

[2] = biological target: T2, proteinase K (Parengyodontium album, UniProt P06873); test: as above; type: in vitro ADME; settings: 100 μg/ml protease K, 37°C, 3 h; 50 μg/ml peptide; inhibition zone assay against E. coli ATCC 25922; repeated three times
T2 construct: purchased Solarbio, China
T2 sequence (P06873 106-384): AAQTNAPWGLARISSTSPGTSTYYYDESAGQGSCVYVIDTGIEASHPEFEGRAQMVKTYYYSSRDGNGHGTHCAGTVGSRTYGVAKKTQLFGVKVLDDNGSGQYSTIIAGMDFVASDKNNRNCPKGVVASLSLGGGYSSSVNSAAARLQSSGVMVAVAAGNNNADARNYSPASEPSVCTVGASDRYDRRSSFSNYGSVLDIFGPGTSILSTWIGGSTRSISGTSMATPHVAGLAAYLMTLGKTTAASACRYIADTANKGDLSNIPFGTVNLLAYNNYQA
From the text: as §1

[3] = tested on: E. coli ATCC 25922; type: cell-based, Escherichia coli
[4] = tested on: E. coli O157:H7; settings: cited from earlier work
Protocol: Salt ions in serum are important factors affecting the antibacterial activity of AMPs in vivo because they can bind to the negatively charged groups of lipopolysaccharide (LPS), a monolayer molecule on the outer membrane of Gram-negative bacteria ([29]). […] But in the presence of physiological concentrations of CaCl2, the MIC of OaBac5mini increased four-fold and attained 100 μg/ml (Table 2). It has been reported that the ...

[5] = tested on: E. coli IF4; test: microbe, parasite or virus in culture; settings: IF4
From the text: (§2) The strains of E. coli ATCC 25922 and S. aureus ATCC 25923 were purchased from the American Type Culture Collection (ATCC, Manassas, VA, United States). The strains of E. coli W13, E. coli IF4, E. coli 2, and E. coli 17 were individually isolated from the livers of diseased chickens infected by E. coli. The strains of S. aureus B5, S. aureus B9, S. aureus B54, and S. aureus B63 were individually isolated from the milk of cows with mastitis. These clinical isolates were all identified by the VITEK-32 system (bioMérieux, France) and PCR amplification sequencing.
(§3) MICs of OaBac5mini, amoxicillin, kanamycin, florfenicol and tetracycline were determined using the two-fold broth microdilution method according to the Clinical and Laboratory Standards Institute (CLSI) guidance ([21]). MIC values of the tested antibacterial agents were determined on three independent occasions. Escherichia coli ATCC 25922 was used as the quality control in all the susceptibility tests.

[6] = tested on: E. coli 17; test: microbe, parasite or virus in culture; settings: 17
From the text: as §2, §3

[7] = tested on: S. aureus B9; test: microbe, parasite or virus in culture; settings: B9
From the text: as §2, §3

[8] = tested on: E. coli W13; test: microbe, parasite or virus in culture; settings: W13
From the text: as §2, §3

[9] = tested on: E. coli 2; test: microbe, parasite or virus in culture; settings: 2
From the text: as §2, §3

[10] = tested on: S. aureus B63; test: microbe, parasite or virus in culture; settings: B63
From the text: as §2, §3

[11] = tested on: S. aureus B54; test: microbe, parasite or virus in culture; settings: B54
From the text: as §2, §3

[12] = tested on: S. aureus B5; test: microbe, parasite or virus in culture; settings: B5
From the text: as §2, §3

[13] = tested on: trypsin; test: Digestive enzyme sensitivity (inhibition zone assay); settings: 37°C, 3 h, 50 μg/ml peptide, inhibition zone assay against E. coli ATCC 25922, repeated three times
Protocol: (§4) The sensitivities of OaBac5mini to different pH, temperature, digestive enzymes, and repeated freeze-thawing conditions were determined using the inhibition zone assay as previously described ([23]). For pH sensitivity, OaBac5mini was diluted with each solution whose pH was individually adjusted to 2, 3, 4, 5, 6, 7, 8, 9, 10, 11 with HCl or NaOH, and incubated for 2 h, followed by adjusting the pH to 7 to end the reaction. For temperature sensitivity, the diluted peptide was incubated at 30, 40, 50, 60, 70, 80, 90, and 100°C for 30 min. To determine the digestive enzymes sensitivity, OaBac5mini was incubated with 100 μg/ml pepsin (in pH 2 sterile water, sigma, USA), 5–100 μg/ml trypsin (in pH 6.8 KH2PO4 buffer, sigma, USA) and 100 μg/ml protease K (Solarbio, China) at 37°C for 3 h, respectively. To end the reaction after incubation, the pepsin buffer was adjusted to pH 8, the trypsin solution and protease K solution were incubated at 95°C for 10 min. For repeated freeze-thawing sensitivity, OaBac5mini was frozen and then thawed at room temperature 0–12 times. All the final concentrations of OaBac5mini in sensitivity tests were 50 μg/ml. All experiments were repeated three times.

[14] = tested on: E. coli ATCC 25922; test: Sensitivity to pH, temperature and repeated freeze-thawing (inhibition zone assay); type: physicochemical, Escherichia coli; settings: 50 μg/ml, inhibition zone assay against E. coli ATCC 25922, repeated three times
Protocol: as §4

[15] = tested on: E. coli ATCC 25922; test: Permeability of the outer membrane (NPN uptake); type: cell-based, Escherichia coli; settings: 25, 50, 100 and 200 μg/ml; 10 μM NPN; 60 min; P < 0.01; n = 3
Protocol: The NPN uptake assay was conducted following the instructions of […] and […] ([25]) with minor modifications. In brief, E. coli. […] Fluorescence units were monitored immediately using INFINITE 200 PRO (Infinite® 2000, TECAN, Austria) at the excitation wavelength of 350 nm and emission wavelength of 420 nm for 100 min at 5 min intervals. Experiments were performed in biological triplicate.

[16] = tested on: E. coli ATCC 25922; test: Integrity of the inner membrane (DiSC3(5)); type: cell-based, Escherichia coli; settings: 25, 50, 100 and 200 μg/ml; 1 μM DiSC3(5); within 30 min; P < 0.05; n = 3
Protocol: If the membrane is depolarized or disrupted, DiSC3(5) is released into the aqueous medium and leads to increased fluorescence. The DiSC3(5) assay was conducted following the instruction of Sautrey et al. ([26]) with minor modifications. […] Fluorescence units were investigated immediately using INFINITE 200 PRO (Infinite® 2000, TECAN, Austria) at the excitation wavelength of 620 nm and emission wavelength of 670 nm for 30 min at 1 min intervals. Triple experiments were conducted with three individual clones of E. coli ATCC 25922.

T1 sequence (P00791 60-385): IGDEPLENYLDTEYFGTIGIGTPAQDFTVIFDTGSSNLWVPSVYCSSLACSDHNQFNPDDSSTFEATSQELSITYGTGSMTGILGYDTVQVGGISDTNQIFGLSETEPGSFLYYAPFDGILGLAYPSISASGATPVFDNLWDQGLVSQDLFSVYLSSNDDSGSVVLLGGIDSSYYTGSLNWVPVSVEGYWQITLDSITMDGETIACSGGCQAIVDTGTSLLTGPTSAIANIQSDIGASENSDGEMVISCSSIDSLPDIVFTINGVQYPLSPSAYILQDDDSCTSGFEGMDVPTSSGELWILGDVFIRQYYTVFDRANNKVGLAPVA

RFRPPIRRPPIRPPFRPPFRPPVR [OaBac5mini]
Antibacterial activity after treatment with pepsin [1]: stable antibacterial activity; also recorded: not significantly affected | Antibacterial activity after treatment with proteinase K [2]: stable antibacterial activity; also recorded: no significant effect | Increase of MIC in the presence of physiological concentration of CaCl2 ([3]; 2.5 mM CaCl2 versus MH broth alone, E. coli ATCC 25922): four-fold | MIC against E. coli ATCC 25922 in MH broth ([3]; ATCC 25922): 25 µg/mL | MIC against E. coli ATCC 25922 in MH broth + CaCl2 ([3]; ATCC 25922): 100 µg/mL | MIC against E. coli ATCC 25922 in MH broth + FeCl3 ([3]; ATCC 25922): 16.67 µg/mL | MIC against E. coli ATCC 25922 in MH broth + KCl ([3]; ATCC 25922): 20.83 µg/mL | MIC against E. coli ATCC 25922 in MH broth + MgCl2 ([3]; ATCC 25922): 50 µg/mL | MIC against E. coli ATCC 25922 in MH broth + NH4Cl ([3]; ATCC 25922): 12.5 µg/mL | MIC against E. coli ATCC 25922 in MH broth + NaCl ([3]; ATCC 25922): 33.33 µg/mL | MIC against E. coli O157:H7 in the presence of 100 mM NaCl [4]: about 30 μg/ml | MIC against E. coli IF4 [5]: 2.60 µg/mL | MIC against E. coli 17 [6]: 3.26 µg/mL | MIC against S. aureus B9 [7]: 250 µg/mL | MIC against E. coli W13 [8]: 3.26 µg/mL | MIC against E. coli 2 [9]: 1.95 µg/mL | MIC against S. aureus B63 [10]: 208.33 µg/mL | MIC against S. aureus B54 [11]: 250 µg/mL | MIC against S. aureus B5 [12]: >250 µg/mL | Antibacterial activity after treatment with trypsin 20 to 100 μg/ml ([13]; trypsin 20 to 100 μg/ml in pH 6.8 KH2PO4 buffer): completely lost activity | Antibacterial activity after treatment with trypsin at low concentrations ([13]; trypsin ≤ 10 μg/ml (< 20 μg/mL) in pH 6.8 KH2PO4 buffer): stable antibacterial activity; also recorded: no significant effect | Antibacterial activity after treatment at high temperature ([14]; 30-100°C for 30 min): stable antibacterial activity | Antibacterial activity after repeated freeze-thawing ([14]; frozen and thawed at room temperature 0-12 times): stable antibacterial activity | Antibacterial activity after treatment at different pH ([14]; pH 2-11 (HCl or NaOH), 2 h, then adjusted to pH 7): stable antibacterial activity; also recorded: not significantly affected | Average fluorescence intensity of NPN (outer membrane permeability) compared with the negative control [15]: significantly increased | Average fluorescence intensity of DiSC3(5) (inner membrane integrity) [16]: significantly increased

— article PMC9995905, “Characteristics of antimicrobial peptide OaBac5mini and its bactericidal mechanism against Escherichia coli” (Frontiers in Veterinary Science, 2023)
